Common to all, as to type: biochemical
One assay has as its target EGFR (Homo sapiens, UniProt P00533). Description: Kinase panel inhibition, EGFR (one of the methods of Example 76a, 76b, 76c). Summed up:
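Kinase activity was measured by TR-FRET in 50 μL reactions in 96-well plates. Enzyme, inhibitor, ATP at its Km and a biotinylated peptide substrate were incubated for one hour at pH 7.4 in buffer containing 20 mM Tris, 50 mM NaCl, MgCl2, MnCl2, 1 mM DTT, 0.1 mM EDTA, 0.01% bovine serum albumin, 0.005% Tween-20 and 10% DMSO. Reactions were stopped with EDTA in Lance buffer. Streptavidin-APC and Eu-labeled p-Tyr100 antibody were added for one hour. The 665/615 nm emission ratio gave activity. IC50 was derived from Ki(app) fitted with BatchKi.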

Another assay has as its target T1, BTK (Homo sapiens, UniProt Q06187).
T1 construct: purified from insect cells as a full-length construct containing a N-terminal 6×-His tag; His6 (N); host or cells: insect cells (baculovirus Sf21)
Briefly: Btk in vitro inhibitory activity (kinase assay by one of Methods A, B or C). The method, boiled down:
(§1)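 BTK (0.5 nM) and LCK (6 nM) by TR-FRET, ATP at Km, biotinylated peptide, pH 7.4, 1 h; Ki(app) converted to IC50. Alternatively, full-length His6-BTK (1 nM) by mobility shift, 16 μM ATP (Km), 1 μM FAM peptide, pH 7.5, 1 h; IC50 from 12-point 4-parameter fit. Radiometric filter-binding option also used.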

In the next assay the target is LCK (Homo sapiens, UniProt P06239). Briefly: Kinase panel inhibition, LCK (one of the methods of Example 76a, 76b, 76c). The method, boiled down: as §1
Chain of LCK (P06239 whole entry, species assumed): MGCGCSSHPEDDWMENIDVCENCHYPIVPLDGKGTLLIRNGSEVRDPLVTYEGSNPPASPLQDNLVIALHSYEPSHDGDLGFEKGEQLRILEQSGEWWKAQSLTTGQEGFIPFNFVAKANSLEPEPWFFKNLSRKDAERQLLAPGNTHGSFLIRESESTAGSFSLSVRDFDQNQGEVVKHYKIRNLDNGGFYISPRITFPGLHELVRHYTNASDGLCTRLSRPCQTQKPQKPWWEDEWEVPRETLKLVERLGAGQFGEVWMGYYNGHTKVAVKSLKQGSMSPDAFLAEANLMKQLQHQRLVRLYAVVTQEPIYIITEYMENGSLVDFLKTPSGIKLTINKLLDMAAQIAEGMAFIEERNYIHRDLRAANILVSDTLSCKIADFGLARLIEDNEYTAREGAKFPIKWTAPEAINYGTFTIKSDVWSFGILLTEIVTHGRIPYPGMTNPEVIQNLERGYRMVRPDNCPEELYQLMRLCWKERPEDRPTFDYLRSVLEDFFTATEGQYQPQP

pIC50: −log10 of the molar value.

Chain of EGFR (P00533 25-1210, species assumed): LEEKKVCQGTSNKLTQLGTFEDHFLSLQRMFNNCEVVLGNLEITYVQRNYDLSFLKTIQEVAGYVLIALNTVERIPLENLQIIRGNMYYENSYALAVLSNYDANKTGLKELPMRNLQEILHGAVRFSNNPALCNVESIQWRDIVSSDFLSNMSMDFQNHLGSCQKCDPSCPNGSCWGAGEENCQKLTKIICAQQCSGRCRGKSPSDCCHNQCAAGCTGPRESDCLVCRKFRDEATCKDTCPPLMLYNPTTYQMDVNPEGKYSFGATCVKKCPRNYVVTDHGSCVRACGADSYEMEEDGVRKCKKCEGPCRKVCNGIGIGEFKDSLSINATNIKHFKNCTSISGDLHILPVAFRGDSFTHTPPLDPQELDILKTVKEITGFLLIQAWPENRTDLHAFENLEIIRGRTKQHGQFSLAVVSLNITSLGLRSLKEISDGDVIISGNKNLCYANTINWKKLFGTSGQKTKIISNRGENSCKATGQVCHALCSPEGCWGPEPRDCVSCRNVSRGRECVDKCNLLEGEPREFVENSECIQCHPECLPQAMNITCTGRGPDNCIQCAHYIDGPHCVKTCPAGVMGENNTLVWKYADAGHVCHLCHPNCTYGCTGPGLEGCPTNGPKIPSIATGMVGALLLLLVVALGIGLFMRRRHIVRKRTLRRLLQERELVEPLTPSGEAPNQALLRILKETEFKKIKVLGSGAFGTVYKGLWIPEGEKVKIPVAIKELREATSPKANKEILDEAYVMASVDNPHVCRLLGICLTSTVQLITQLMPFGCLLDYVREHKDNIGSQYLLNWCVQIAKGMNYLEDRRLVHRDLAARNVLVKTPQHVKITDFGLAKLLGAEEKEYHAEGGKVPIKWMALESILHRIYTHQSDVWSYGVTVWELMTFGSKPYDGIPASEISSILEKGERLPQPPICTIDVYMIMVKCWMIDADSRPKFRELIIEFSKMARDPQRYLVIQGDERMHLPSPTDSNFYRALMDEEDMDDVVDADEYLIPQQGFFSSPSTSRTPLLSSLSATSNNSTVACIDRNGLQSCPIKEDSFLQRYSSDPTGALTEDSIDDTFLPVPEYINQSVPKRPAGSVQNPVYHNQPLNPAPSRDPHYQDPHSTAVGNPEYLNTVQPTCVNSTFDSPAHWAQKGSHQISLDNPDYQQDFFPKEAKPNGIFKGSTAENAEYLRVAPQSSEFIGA
T1 sequence (Q06187 whole entry): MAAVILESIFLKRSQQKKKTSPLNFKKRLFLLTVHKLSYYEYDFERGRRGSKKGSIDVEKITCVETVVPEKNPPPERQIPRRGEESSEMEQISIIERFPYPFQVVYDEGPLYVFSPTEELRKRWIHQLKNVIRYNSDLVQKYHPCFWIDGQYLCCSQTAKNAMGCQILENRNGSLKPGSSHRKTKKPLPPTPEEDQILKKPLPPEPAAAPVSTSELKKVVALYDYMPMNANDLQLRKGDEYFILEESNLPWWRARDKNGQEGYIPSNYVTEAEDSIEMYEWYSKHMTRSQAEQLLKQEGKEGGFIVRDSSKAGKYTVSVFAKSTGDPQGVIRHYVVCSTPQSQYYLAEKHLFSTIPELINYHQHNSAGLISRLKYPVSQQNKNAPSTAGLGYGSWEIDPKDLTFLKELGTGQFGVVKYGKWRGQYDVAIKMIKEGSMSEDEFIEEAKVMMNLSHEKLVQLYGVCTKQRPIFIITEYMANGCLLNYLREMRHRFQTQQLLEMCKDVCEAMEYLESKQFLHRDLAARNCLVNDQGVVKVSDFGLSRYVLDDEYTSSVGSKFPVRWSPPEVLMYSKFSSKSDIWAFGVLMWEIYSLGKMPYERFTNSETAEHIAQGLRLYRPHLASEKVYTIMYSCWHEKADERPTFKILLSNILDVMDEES

Regarding `Cc1cccc(COc2ccc(-n3c(=O)n(-c4cccc(N(C)C(=O)/C=C/CN(C)C5CC5)c4)c4ncnc(N)c43)cc2)c1` [Compound 239, (E)-N-(3-(6-amino-7-(4-(3-methylbenzyloxy)phenyl)-8-oxo-7H-purin-9(8H)-yl)phenyl)-4-(cyclopropyl(methyl)amino)-N-methylbut-2-enamide], the pIC50 against EGFR is 5.00 to 6.00; at BTK, greater than 7.00; against LCK it was less than 5.00.
Taken in the same sequence, the figures for `CN(C(=O)/C=C/CN(C)C1CC1)c1cccc(-n2c(=O)n(-c3ccc(OCc4cccc(F)c4)cc3)c3c(N)ncnc32)c1` [Compound 244, (E)-N-(3-(6-amino-7-(4-(3-fluorobenzyloxy)phenyl)-8-oxo-7H-purin-9(8H)-yl)phenyl)-4-(cyclopropyl(methyl)amino)-N-methylbut-2-enamide] were 5.00 to 6.00, greater than 7.00 and less than 5.00.
Taken in the same sequence, the figures for `CN(C(=O)/C=C/c1ccccn1)c1cccc(-n2c(=O)n(-c3ccc(Oc4ccccc4)cc3)c3c(N)ncnc32)c1` [Compound 247, (E)-N-(3-(6-amino-8-oxo-7-(4-phenoxyphenyl)-7H-purin-9(8H)-yl)phenyl)-N-methyl-3-(pyridin-2-yl)acrylamide] were 5.00 to 6.00, 6.00 to 7.00 and 5.00 to 6.00.
The like results for `Cc1cc(NC(=O)/C=C/CN(C)C2CC2)cc(-n2c(=O)n(-c3ccc(Oc4ccccc4)cc3)c3c(N)ncnc32)c1` [Compound 255, (E)-N-(3-(6-amino-8-oxo-7-(4-phenoxyphenyl)-7H-purin-9(8H)-yl)-5-methylphenyl)-4-(cyclopropyl(methyl)amino)but-2-enamide] were, in that order, 6.00 to 7.00, greater than 7.00 and 6.00 to 7.00.
`COc1cc(-n2c(=O)n(-c3cccc(N(C)C(=O)/C=C/CN(C)C4CC4)c3)c3ncnc(N)c32)ccc1Oc1ccccc1` [Compound 285, (E)-N-(3-(6-amino-7-(3-methoxy-4-phenoxyphenyl)-8-oxo-7H-purin-9(8H)-yl)phenyl)-4-(cyclopropyl(methyl)amino)-N-methylbut-2-enamide]: the pIC50 was 5.00 to 6.00 against EGFR, greater than 7.00 on BTK and 5.00 to 6.00 against LCK.
As for `Cc1cc(Oc2ccccc2)ccc1-n1c(=O)n(-c2cccc(N(C)C(=O)/C=C/CN(C)C3CC3)c2)c2ncnc(N)c21` [Compound 290, (E)-N-(3-(6-amino-7-(2-methyl-4-phenoxyphenyl)-8-oxo-7H-purin-9(8H)-yl)phenyl)-4-(cyclopropyl(methyl)amino)-N-methylbut-2-enamide], the pIC50 was 5.00 to 6.00 on EGFR, greater than 7.00 against BTK and 5.00 to 6.00 on LCK.
Turning to `COc1cc(-n2c(=O)n(-c3cccc(N(C)C(=O)/C=C/CN(C)C4CC4)c3)c3ncnc(N)c32)ccc1OCc1ccccc1` [Compound 295, (E)-N-(3-(6-amino-7-(4-(benzyloxy)-3-methoxyphenyl)-8-oxo-7H-purin-9(8H)-yl)phenyl)-4-(cyclopropyl(methyl)amino)-N-methylbut-2-enamide], the pIC50 against EGFR was less than 5.00; at BTK, greater than 7.00; on LCK, less than 5.00.
As to `Cc1cc(NC(=O)/C=C/CN(C)C2CC2)cc(-n2c(=O)n(-c3ccc(Oc4ccccc4)cc3C)c3c(N)ncnc32)c1` [Compound 298, (E)-N-(3-(6-amino-7-(2-methyl-4-phenoxyphenyl)-8-oxo-7H-purin-9(8H)-yl)-5-methylphenyl)-4-(cyclopropyl(methyl)amino)but-2-enamide], the pIC50 against EGFR is 6.00 to 7.00; on BTK, greater than 7.00; against LCK, 5.00 to 6.00.
As to `COc1cc(NC(=O)/C=C/CN(C)C2CC2)cc(-n2c(=O)n(-c3ccc(Oc4ccccc4)cc3C)c3c(N)ncnc32)c1` [Compound 301, (E)-N-(3-(6-amino-7-(2-methyl-4-phenoxyphenyl)-8-oxo-7H-purin-9(8H)-yl)-5-methoxyphenyl)-4-(cyclopropyl(methyl)amino)but-2-enamide], the pIC50 is 6.00 to 7.00 at EGFR, greater than 7.00 against BTK and 5.00 to 6.00 on LCK.
Taken in the same sequence, the figures for `CN(C/C=C/C(=O)N1CCOc2ccc(-n3c(=O)n(-c4ccc(Oc5cccc(F)c5)cc4)c4c(N)ncnc43)cc21)C1CC1` [Compound 306, (E)-6-amino-9-(4-(4-(cyclopropyl(methyl)amino)but-2-enoyl)-3,4-dihydro-2H-benzo[b][1,4]oxazin-6-yl)-7-(4-(3-fluorophenoxy)phenyl)-7H-purin-8(9H)-one] were 6.00 to 7.00, greater than 7.00 and 5.00 to 6.00.
Taken in the same sequence, the figures for `CN(C(=O)/C=C/CN(C)[C@H]1CCOC1)c1cccc(-n2c(=O)n(-c3ccc(Oc4cccc(F)c4)cc3)c3c(N)ncnc32)c1` [Compound 309, (S,E)-N-(3-(6-amino-7-(4-(3-fluorophenoxy)phenyl)-8-oxo-7H-purin-9(8H)-yl)phenyl)-N-methyl-4-(methyl(tetrahydrofuran-3-yl)amino)but-2-enamide] were 5.00 to 6.00, greater than 7.00 and 5.00 to 6.00.
The like results for `COc1ccc(-n2c(=O)n(-c3ccc(Oc4cccc(F)c4)cc3)c3c(N)ncnc32)cc1N(C)C(=O)/C=C/CN(C)C1CC1` [Compound 312, (E)-N-(5-(6-amino-7-(4-(3-fluorophenoxy)phenyl)-8-oxo-7H-purin-9(8H)-yl)-2-methoxyphenyl)-4-(cyclopropyl(methyl)amino)-N-methylbut-2-enamide] were, in that order, less than 5.00, greater than 7.00 and less than 5.00.
Regarding `COc1ccc(-n2c(=O)n(-c3ccc(Oc4ccccc4)cc3)c3c(N)ncnc32)cc1N(C)C(=O)/C=C/CN(C)[C@H]1CCOC1` [Compound 313, (S,E)-N-(5-(6-amino-8-oxo-7-(4-phenoxyphenyl)-7H-purin-9(8H)-yl)-2-methoxyphenyl)-N-methyl-4-(methyl(tetrahydrofuran-3-yl)amino)but-2-enamide], the pIC50 against EGFR is 5.00 to 6.00; at BTK, greater than 7.00; against LCK it was 5.00 to 6.00.
For `CN(C/C=C/C(=O)Nc1cccc(-n2c(=O)n(-c3ccc(Oc4cccc(F)c4)cc3)c3c(N)ncnc32)c1)[C@H]1CCOC1` [Compound 316, (S,E)-N-(3-(6-amino-7-(4-(3-fluorophenoxy)phenyl)-8-oxo-7H-purin-9(8H)-yl)phenyl)-4-(methyl(tetrahydrofuran-3-yl)amino)but-2-enamide], the values for the pIC50 against EGFR, on BTK and against LCK were 6.00 to 7.00, greater than 7.00 and 5.00 to 6.00, respectively.
The like results for `CN(C/C=C/C(=O)Nc1cccc(-n2c(=O)n(-c3ccc(Oc4ccccc4)cc3)c3c(N)ncnc32)c1)[C@H]1CCOC1` [Compound 317, (S,E)-N-(3-(6-amino-8-oxo-7-(4-phenoxyphenyl)-7H-purin-9(8H)-yl)phenyl)-4-(methyl(tetrahydrofuran-3-yl)amino)but-2-enamide] were, in that order, 6.00 to 7.00, greater than 7.00 and 6.00 to 7.00.
The like results for `COCCN(C)C/C=C/C(=O)Nc1cccc(-n2c(=O)n(-c3ccc(Oc4ccccc4)cc3)c3c(N)ncnc32)c1` [Compound 318, (E)-N-(3-(6-amino-8-oxo-7-(4-phenoxyphenyl)-7H-purin-9(8H)-yl)phenyl)-4-((2-methoxyethyl)(methyl)amino)but-2-enamide] were, in that order, greater than 7.00, greater than 7.00 and 6.00 to 7.00.

For the origin of these results see patent publication US9469642B2, “Purinone compounds as kinase inhibitors” (Pharmacyclics LLC, priority 2012, dated 2016).
